Data reported in patent US8003615B2, “Stable vitamin B6 derivative” (Daiichi Fine Chemical Co., Ltd., priority 2003, dated 2011).

Tests used:
Format in all cases: physicochemical
[1] = Test for change in formulation: aqueous solution with calcium pantothenate; conditions: aqueous solution 0.1 g + 0.1 g calcium pantothenate per 100 ml, 40° C., one month
Procedure: Calcium pantothenate (0.1 g) and a vitamin B6 derivative (0.1 g) were dissolved in purified water and made 100 ml to prepare a sample for stability test in the form of a solution. The sample filled in a sealed glass bottle was stored at 40° C. Appearance of the sample was examined by visual inspection after 0 day, 14 days, and one month, and the vitamin B6 derivative and calcium pantothenate were quantified by the HPLC method in the same manner as in Test Example 11 mentioned above, provided that the detection wavelength for calcium pantothenate was 210 nm.

[2] = Light stability in an eye lotion
Procedure: Neostigmine methylsulfate (5 mg), potassium L-aspartate (0.4 g), boric acid (5 mg), sodium borate (5 mg), methyl paraoxybenzoate (10 mg), chlorobutanol (0.1 g), and vitamin B6 derivative (0.1 g) were dissolved in sterilized purified water (70 ml). After dissolution, the solution was made into a volume of 100 ml with sterilized purified water to prepare an eye lotion. In this preparation, precipitates and the like were not observed. The prepared eye lotion in a volume of 6 ml was put into a glass bottle, and exposed to light of a D65 fluorescent lamp at a total illumination of 0, 60,000, 180,000, or 300,000 lux·hr, and then the vitamin B6 derivative was quantified by the HPLC method in the same manner as in Test Example 11 mentioned above.

[3] = Thermal stability of aqueous solution kept at 50° C., HPLC; conditions: 0.5% (w/v) aqueous solution, 50° C. for 90 days
Procedure: A 0.5% (w/v) aqueous solution of pyridoxine 3-β-D-glucoside (pH 6.7) in a volume of 0.3 ml was sealed in a 1-ml volume glass ampoule, and kept at 50° C. under light shielding. The sample was warmed for 90 days, and analyzed during the warming by HPLC (analysis conditions were the same as those applied in Test Example 1) to measure a pyridoxine 3-β-D-glucoside content. A solution of pyridoxine hydrochloride of the same concentration (adjusted to pH 6.7) was treated in the same manner, and the results were compared.
Aqueous solutions (0.5% (w/v)) of pyridoxine 3-β-D-glucoside hydrochloride, pyridoxal 3-β-D-glucoside, pyridoxamine 3-β-D-glucoside, pyridoxine 3-β-D-galactoside, pyridoxine hydrochloride, pyridoxal hydrochloride, and pyridoxamine hydrochloride (adjusted to pH 6.3 to 7.2 with HCl or NaOH) were each sealed in a volume of 0.3 ml in a 1-ml volume glass ampoule, […] in the same manner as in Test Example 2.
0.5% (w/v) Aqueous solutions of pyridoxine 3,4′-cyclic sodium phosphate and pyridoxine hydrochloride (adjusted to pH 6.5 to 6.8) were each sealed in a volume of 0.3 ml in a 1-ml volume glass ampoule, and warming at 50° C. and HPLC analysis were performed in the same manner as in Test Example 2.

[4] = Light stability in a shampoo
Procedure: Sodium coconut oil fatty acid methyltaurine (10.0 g), polyoxyethylene alkyl ether sodium sulfate (20.0 g), lauryl dimethylaminoacetate betaine (10.0 g), coconut oil fatty acid diethanolamide (4.0 g), propylene glycol (2.0 g), vitamin B6 derivative (0.1 g), and methyl paraoxybenzoate (0.01 g) were added to purified water (40 ml), and warmed to 70° C. for dissolution. The solution was cooled to a temperature below 35° C., and then adjusted to pH 6.8 with 10% aqueous citric acid, and made into a volume of 100 ml with purified water to prepare a shampoo. In this preparation, precipitates and the like were not observed. The prepared shampoo in a volume of 6 ml was filled in a glass bottle, and exposed to light of a D65 fluorescent lamp at a total illumination of 0, 60,000, 180,000, or 300,000 lux·hr, and then the vitamin B6 derivative was quantified. The same sample was separately stored at 50° C., and after 0 day, 14 days, one month, and two months, the vitamin B6 derivative was quantified by the HPLC method in the same manner as in Test Example 11 mentioned above.

[5] = Light stability in a lotion
Procedure: Ceramide formulation (0.1 g), 1,3-butylene glycol (2.5 g), dipropylene glycol (2.5 g), and methylparaben (0.01 g) were warmed at 80° C. and stirred until the mixture became transparent. The mixture was cooled to 35° C., then added with 0.1 g of a vitamin B6 derivative (pyridoxine 3-β-D-glucoside, pyridoxine 3-β-D-glucoside hydrochloride, or pyridoxine 3,4-cyclic sodium phosphate: in Test Examples 11 to 16 mentioned below, the “vitamin B6 derivative” means one of these three kinds of substances) or 0.1 g of pyridoxine 3-sodium sulfate, 1.0 g of sorbitol-fermented polysaccharide and 90 ml of purified water with stirring, and the mixture were stirred until the added substances were dissolved. The solution was adjusted to pH 6.4 with 10% aqueous citric acid, and made into a volume of 100 ml with purified water to prepare a lotion. In this preparation, precipitates and the like were not observed. The prepared lotion in a volume of 6 ml was filled in a glass bottle, and exposed to light of a D65 fluorescent lamp at a total illumination of 0, 60,000, 180,000, or 300,000 lux·hr, and then the vitamin B6 derivative was quantified. The same sample was separately stored at 50° C., and after 0 day, 14 days, one month, and two months, the vitamin B6 derivative was quantified by the HPLC method described in Test Example 1.

[6] = Light stability in a dog food
Procedure: A vitamin B6 derivative (0.1 g) was added to wheat flour (10 g), and uniformly mixed. The mixture was further successively added with breast meat of chicken (40.0 g), soybean protein (30.0 g), glucose (5.0 g), citric acid (0.001 g), sodium chloride (1.0 g), copper sulfate (0.01 g), iron sulfate (0.01 g), sorbic acid (0.3 g), and propylene glycol (5.0 g), and uniformly mixed. The mixture was made 100 g with purified water, and uniformly mixed to prepare dog food.
The prepared dog food in an amount of 5 g was put into a petri dish, and exposed to light of a D65 fluorescent lamp at a total illumination of 0, 60,000, 180,000, or 300,000 lux·hr, and then the vitamin B6 derivative was quantified by the HPLC method in the same manner as in Test Example 11 mentioned above.

[7] = D65 fluorescent lamp, 180,000 lux·hr for 3 days
[8] = D65 fluorescent lamp, 300,000 lux·hr for 5 days

Compound: Cc1ncc(CO)c(CO)c1O.Cl [pyridoxine hydrochloride]
- remained calcium pantothenate in the formulation with the substance [1]: 83%
- remained substance in eye lotion after irradiation [2, 7]: 68%
- remained substance in eye lotion after irradiation [2, 8]: 49%
- coloring of the aqueous solution after the warming [3]: colored in yellow
- remained substance in shampoo after irradiation ([4]; shampoo pH 6.8, D65 fluorescent lamp, 180,000 lux·hr for 3 days): 60%
- remained substance in shampoo after irradiation ([4]; shampoo pH 6.8, D65 fluorescent lamp, 300,000 lux·hr for 5 days): 58%
- remained substance in lotion after irradiation ([5]; lotion pH 6.4, D65 fluorescent lamp, 180,000 lux·hr for 3 days): 42%
- remained substance in lotion after irradiation ([5]; lotion pH 6.4, D65 fluorescent lamp, 300,000 lux·hr for 5 days): 30%
- remained substance in dog food after irradiation [6, 7]: 90%
- remained substance in dog food after irradiation [6, 8]: 85%
